Results on one molecule are retold here after US6559154B2 (priority 2000, dated 2003).

The conditions of data set [1]: cited from earlier work.
The test system of a further data set is rats. Particulars: rat, in vivo.

In the case of `N=C1NC(O)C2C3OC4(O)OC(C(O)C2(N1)C4O)C3(O)CO` (stereo not shown) [TTX, octahydro-12-(hydroxymethyl)-2-imino-5,9:7,10a-dimethano-10aH-(1,3)dioxocino(6,5-d)-pyrimidine-4,7,10,11, 12-pentol], in data set [1], the “solubility in acidic aqueous solution” value is “soluble”, the “solubility in organic solvents” value is listed as “not soluble” and the solubility in water entry is “only slightly soluble”. The molecule further came in with an effective dosage in the data set with rats of 2.5 µg/mg.
